Data on 27 compounds can be found in patent US9409866B2, “Pyridine-2-amides useful as CB2 agonists” (Hoffmann-La Roche Inc., priority 2012, dated 2016).

Each structure is given as a SMILES string. Like-named read-outs stand apart in the source and are kept apart here.

One test addresses human CB2 receptors (Homo sapiens (Human), UniProt P34972). The experiment in a line: functional cAMP assay, CHO cells expressing human CB2. The test is classed as cell-based. The method in brief: (§1)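 Compound exposure lasted 30 min at 30 °C in IBMX (1 mM)-containing Krebs Ringer bicarbonate buffer, applied to human CB1- or CB2-expressing CHO cells. Lysates were read by time-resolved FRET cAMP detection, converted via cAMP standard curve (10 μM–0.13 nM), and EC50 values calculated.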

The next test concerns the target human CB1 receptors (Homo sapiens (Human), UniProt P21554). Briefly: functional cAMP assay, CHO cells expressing human CB1. The test is classed as cell-based. The method in brief:
as §1

Setting [1] is: Human CB1 EC50 (uM), functional cAMP assay, CHO cells expressing human CB1.
Setting [2] is: functional cAMP assay, CHO cells expressing human CB1; read-out: Human CB1 EC50.
[3] abbreviates: read-out: Human CB1 EC50; functional cAMP assay, CHO cells expressing human CB1.

Sequence of human CB1 receptors (P21554 whole entry): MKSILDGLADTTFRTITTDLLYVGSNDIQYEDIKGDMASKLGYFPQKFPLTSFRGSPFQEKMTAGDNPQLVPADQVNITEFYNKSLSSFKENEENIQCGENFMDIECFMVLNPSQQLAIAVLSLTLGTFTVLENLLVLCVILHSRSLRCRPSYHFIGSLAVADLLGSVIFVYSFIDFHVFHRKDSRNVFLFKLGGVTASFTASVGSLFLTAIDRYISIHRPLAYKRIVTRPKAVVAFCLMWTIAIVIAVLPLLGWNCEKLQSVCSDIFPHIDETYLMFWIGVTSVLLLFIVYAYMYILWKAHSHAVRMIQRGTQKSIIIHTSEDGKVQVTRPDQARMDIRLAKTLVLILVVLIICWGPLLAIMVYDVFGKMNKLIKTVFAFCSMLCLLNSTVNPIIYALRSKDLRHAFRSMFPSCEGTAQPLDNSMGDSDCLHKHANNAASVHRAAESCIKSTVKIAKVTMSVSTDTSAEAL
Sequence of human CB2 receptors (P34972 whole entry): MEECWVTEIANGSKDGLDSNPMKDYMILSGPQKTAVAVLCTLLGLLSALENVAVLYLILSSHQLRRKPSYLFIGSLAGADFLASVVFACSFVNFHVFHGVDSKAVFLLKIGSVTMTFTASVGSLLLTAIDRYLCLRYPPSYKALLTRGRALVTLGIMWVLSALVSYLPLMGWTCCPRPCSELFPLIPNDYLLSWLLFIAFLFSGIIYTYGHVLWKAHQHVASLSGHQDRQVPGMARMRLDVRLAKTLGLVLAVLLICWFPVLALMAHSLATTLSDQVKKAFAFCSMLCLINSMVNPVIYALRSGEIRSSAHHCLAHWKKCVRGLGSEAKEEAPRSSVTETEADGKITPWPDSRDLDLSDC

In the case of `CC(CF)Oc1cc(C(=O)NC(C)(CC(N)=O)C2CC2)ncc1C1CC1` (single isomer, unassigned) [Example 301, N-(4-amino-2-cyclopropyl-4-oxobutan-2-yl)-5-cyclopropyl-4-(1-fluoropropan-2-yloxy)picolinamide], the figures for the EC50 at human CB2 receptors (Human CB2 EC50 (uM)) and on human CB1 receptors (setting [1]) were 0.0304 µM and over 10 µM, respectively.

Regarding `Cc1nc(C(C)(CC(C)(C)C)NC(=O)c2cc(OCC(F)(F)F)c(C3CC3)cn2)no1` (stereo not drawn) [Example 97, 5-Cyclopropyl-4-(2,2,2-trifluoro-ethoxy)-pyridine-2-carboxylic acid [1,3,3-trimethyl-1-(5-methyl-[1,2,4]oxadiazol-3-yl)-butyl]-amide], the values for the EC50 on human CB2 receptors (read-out: Human CB2 EC50) and at human CB1 receptors (setting [2]) were 0.0059 µM and over 10 µM, respectively.

As for `Cc1nc(C(C)(CC2CC2)NC(=O)c2cc(OC(C)CF)c(C3CC3)cn2)no1` (single isomer, unassigned) [Example 288, 5-cyclopropyl-N-(1-cyclopropyl-2-(5-methyl-1,2,4-oxadiazol-3-yl)propan-2-yl)-4-(1-fluoropropan-2-yloxy)picolinamide], the EC50 (as a rule, the midpoint of the concentration-response curve) on human CB2 receptors (Human CB2 EC50 (uM)) was 0.0008 µM; on human CB1 receptors (setting [3]) it was over 10 µM.

For `CCC(C)(CO)NC(=O)c1cc(OCC2CC2)c(Cl)cn1` (stereo not drawn) [Example 26, 5-Chloro-4-cyclopropylmethoxy-pyridine-2-carboxylic acid (1-hydroxymethyl-1-methyl-propyl)-amide], the EC50 on human CB2 receptors (read-out: Human CB2 EC50) was 0.0476 µM; on human CB1 receptors (setting [2]) it was over 10 µM.

On to `CNC(=O)CC(C)(NC(=O)c1cc(OCC(F)(F)F)c(C2CC2)cn1)C1CC1` (single isomer, unassigned) [Example 242, 5-cyclopropyl-N-[2-cyclopropyl-4-(methylamino)-4-oxobutan-2-yl]-4-(2,2,2-trifluoroethoxy)pyridine-2-carboxamide], for which the EC50 was 0.237 µM on human CB2 receptors (Human CB2 EC50 (uM)) and over 10 µM at human CB1 receptors (setting [3]).

Take `Cc1nc(C(C)(NC(=O)c2cc(O[C@@H](C)C(F)(F)F)c(C3CC3)cn2)C2CC2)no1` (single isomer, unassigned; epimer b) [Example 69]: the EC50 at human CB2 receptors (read-out: Human CB2 EC50) came to 0.00025 µM; at human CB1 receptors (setting [2]) it was 0.015 µM.

As to `Cc1nnc(C(NC(=O)c2cc(OCC(F)(F)F)c(C3CC3)cn2)C2(C)COC2)o1` (stereo not drawn) [Example 245, 5-cyclopropyl-N-[(5-methyl-1,3,4-oxadiazol-2-yl)-(3-methyloxetan-3-yl)methyl]-4-(2,2,2-trifluoroethoxy)pyridine-2-carboxamide], the results for the EC50 at human CB2 receptors (read-out: Human CB2 EC50) and on human CB1 receptors (setting [2]) were 0.997 µM and over 10 µM, respectively.

For the compound `Cc1nc(C(C)(CS(C)(=O)=O)NC(=O)c2cc(OCC(F)(F)F)c(C3CCC3)cn2)no1` (stereo not drawn) [Example 109, 5-Cyclobutyl-4-(2,2,2-trifluoro-ethoxy)-pyridine-2-carboxylic acid [2-methanesulfonyl-1-methyl-1-(5-methyl-[1,2,4]oxadiazol-3-yl)-ethyl]-amide], the EC50 at human CB2 receptors (read-out: Human CB2 EC50) was 0.0157 µM; at human CB1 receptors (setting [2]) it was over 10 µM.

Regarding `O=C(c1cc(OCC(F)(F)F)c(C2CC2)cn1)N1CCCC12COC2` [Example 71, [5-Cyclopropyl-4-(2,2,2-trifluoro-ethoxy)-pyridin-2-yl]-(2-oxa-5-aza-spiro[3.4]oct-5-yl)-methanone], the EC50 is 0.586 µM on human CB2 receptors (read-out: Human CB2 EC50) and over 10 µM on human CB1 receptors (setting [2]).

With `Cc1nc(C(C)(CS(C)(=O)=O)NC(=O)c2cc(OCC(F)F)c(C3CC3)cn2)no1` (single isomer, unassigned) [Example 284, 5-cyclopropyl-4-(2,2-difluoroethoxy)-N-(2-(5-methyl-1,2,4-oxadiazol-3-yl)-1-(methylsulfonyl)propan-2-yl)picolinamide], the figures for the EC50 on human CB2 receptors (Human CB2 EC50 (uM)) and at human CB1 receptors (setting [3]) were 0.0453 µM and over 10 µM, respectively.

`C[C@H](Oc1cc(C(=O)NC(c2noc(N)n2)C(C)(C)C)ncc1C1CC1)C(F)(F)F` (stereo partly drawn) [Example 219, N-[1-(5-amino-1,2,4-oxadiazol-3-yl)-2,2-dimethylpropyl]-5-cyclopropyl-4-[(2S)-1,1,1-trifluoropropan-2-yl]oxypyridine-2-carboxamide]: the EC50 was 0.001 µM at human CB2 receptors (read-out: Human CB2 EC50) and over 10 µM on human CB1 receptors (setting [2]).

In the case of `CC(C)(C)C(NC(=O)c1cc(OCC(F)(F)F)c(Cl)cn1)c1nccs1` (stereo not drawn) [Example 38, 5-Chloro-4-(2,2,2-trifluoro-ethoxy)-pyridine-2-carboxylic acid (2,2-dimethyl-1-thiazol-2-yl-propyl)-amide], the concentration for a half-maximal effect (EC50) was 0.0408 µM at human CB2 receptors (read-out: Human CB2 EC50) and over 10 µM on human CB1 receptors (setting [2]).

For the compound `CC(C)CC(C)(CO)NC(=O)c1cc(OCC2CC2)c(Cl)cn1` (stereo not drawn) [Example 25, 5-Chloro-4-cyclopropylmethoxy-pyridine-2-carboxylic acid (1-hydroxymethyl-1,3-dimethyl-butyl)-amide], the EC50 at human CB2 receptors (read-out: Human CB2 EC50) is 0.0119 µM; at human CB1 receptors (setting [2]), over 10 µM.

For the compound `Cc1nc(C(C)(CS(C)(=O)=O)NC(=O)c2cc(OCC(F)(F)F)c(N3CC(F)(F)C3)cn2)no1` (stereo not drawn) [Example 95, 5-(3,3-Difluoro-azetidin-1-yl)-4-(2,2,2-trifluoro-ethoxy)-pyridine-2-carboxylic acid [2-methanesulfonyl-1-methyl-1-(5-methyl-[1,2,4]oxadiazol-3-yl)-ethyl]-amide], the EC50 on human CB2 receptors (read-out: Human CB2 EC50) is 0.0554 µM; at human CB1 receptors (setting [2]), over 10 µM.

Consider `CC(CF)Oc1cc(C(=O)NC2(CC(N)=O)CS(=O)(=O)C2)ncc1C1CC1` (single isomer, unassigned) [Example 291, N-[3-(2-amino-2-oxoethyl)-1,1-dioxothietan-3-yl]-5-cyclopropyl-4-[1-fluoropropan-2-yl]oxypyridine-2-carboxamide], for which the EC50 is 0.0003 µM at human CB2 receptors (Human CB2 EC50 (uM)) and over 10 µM on human CB1 receptors (setting [1]).

For `Cc1nc(C(C)(CC2CC2)NC(=O)c2cc(O[C@@H](C)C(F)(F)F)c(C3CCC3)cn2)no1` (stereo partly drawn) [Example 121, 5-cyclobutyl-N-[1-cyclopropyl-2-(5-methyl-1,2,4-oxadiazol-3-yl)propan-2-yl]-4-[(2S)-1,1,1-trifluoropropan-2-yl]oxypyridine-2-carboxamide], the EC50 at human CB2 receptors (read-out: Human CB2 EC50) was 0.0006 µM; on human CB1 receptors (setting [2]), over 10 µM.

Regarding `CC(C)C[C@@](C)(CO)NC(=O)c1cc(OCC2CC2)c(Cl)cn1` [Example 27, (−)-5-Chloro-4-cyclopropylmethoxy-pyridine-2-carboxylic acid (1-hydroxymethyl-1,3-dimethyl-butyl)-amide], the EC50 was 0.0224 µM on human CB2 receptors (read-out: Human CB2 EC50) and over 10 µM on human CB1 receptors (setting [2]).

Turning to `CC(C)(C)NC(=O)c1cc(OCC(F)(F)F)c(C2CC2)cn1` [Example 70, 5-Cyclopropyl-4-(2,2,2-trifluoro-ethoxy)-pyridine-2-carboxylic acid tert-butylamide], the EC50 on human CB2 receptors (read-out: Human CB2 EC50) was 0.0104 µM; at human CB1 receptors (setting [2]) it was over 10 µM.

As for `CCC(C)(NC(=O)c1cc(OCC(F)(F)F)c(C2CC2)cn1)C(N)=O` (stereo not drawn) [Example 77, 5-Cyclopropyl-4-(2,2,2-trifluoro-ethoxy)-pyridine-2-carboxylic acid (1-carbamoyl-1-methyl-propyl)-amide], the EC50 at human CB2 receptors (read-out: Human CB2 EC50) was 0.137 µM; at human CB1 receptors (setting [2]), over 10 µM.

Regarding `Cc1nc(C(NC(=O)c2cc(OCC(F)(F)F)c(C3CC3)cn2)C(C)(C)C)no1` (single isomer, unassigned) [Example 211, 5-cyclopropyl-N-[2,2-dimethyl-1-(5-methyl-1,2,4-oxadiazol-3-yl)propyl]-4-(2,2,2-trifluoroethoxy)pyridine-2-carboxamide], the EC50 at human CB2 receptors (Human CB2 EC50 (uM)) is 0.0048 µM; at human CB1 receptors (setting [1]) it was over 10 µM.

As to `CC(C)(O)CNC(=O)c1cc(OCC(F)(F)F)c(C2CC2)cn1` [Example 60, 5-Cyclopropyl-4-(2,2,2-trifluoro-ethoxy)-pyridine-2-carboxylic acid (2-hydroxy-2-methyl-propyl)-amide], the EC50 at human CB2 receptors (read-out: Human CB2 EC50) was 0.481 µM; on human CB1 receptors (setting [2]) it was over 10 µM.

Turning to `Cc1nc(C(C)(CO)NC(=O)c2cc(OCC(F)(F)F)c(C3CC3)cn2)no1` (stereo not drawn) [Example 113, 5-cyclopropyl-N-[1-hydroxy-2-(5-methyl-1,2,4-oxadiazol-3-yl)propan-2-yl]-4-(2,2,2-trifluoroethoxy)pyridine-2-carboxamide], the EC50 is 0.263 µM on human CB2 receptors (read-out: Human CB2 EC50) and over 10 µM at human CB1 receptors (setting [2]).

Take `COC(=O)C(C)(C)NC(=O)c1cc(I)c(Cl)cn1` [Example 1, 2-[(5-Chloro-4-iodo-pyridine-2-carbonyl)-amino]-2-methyl-propionic acid methyl ester]: the EC50 is 0.0356 µM on human CB2 receptors (read-out: Human CB2 EC50) and over 10 µM on human CB1 receptors (setting [2]).

For `CC(C)(C)C(NC(=O)c1cc(OCC(F)(F)F)c(C2CC2)cn1)c1nn[nH]n1` (stereo not drawn) [Example 162, 5-cyclopropyl-N-[2,2-dimethyl-1-(1H-tetrazol-5-yl)propyl]-4-(2,2,2-trifluoroethoxy)pyridine-2-carboxamide], the EC50 on human CB2 receptors (read-out: Human CB2 EC50) was 0.0717 µM; on human CB1 receptors (setting [2]), over 10 µM.

As for `Cc1nc(C(C)(CS(C)(=O)=O)NC(=O)c2cc(O[C@@H](C)C(F)(F)F)c(C3CCC3)cn2)no1` (stereo partly drawn) [Example 119, 5-cyclobutyl-N-[2-(5-methyl-1,2,4-oxadiazol-3-yl)-1-methylsulfonylpropan-2-yl]-4-[(2S)-1,1,1-trifluoropropan-2-yl]oxypyridine-2-carboxamide], the results for the EC50 at human CB2 receptors (read-out: Human CB2 EC50) and at human CB1 receptors (setting [2]) were 0.0091 µM and over 10 µM, respectively.

For the compound `CC1(C(NC(=O)c2cc(OCC(F)(F)F)c(C3CC3)cn2)C(N)=O)COC1` (single isomer, unassigned) [Example 269, N-[2-amino-1-(3-methyloxetan-3-yl)-2-oxoethyl]-5-cyclopropyl-4-(2,2,2-trifluoroethoxy)pyridine-2-carboxamide], the EC50 at human CB2 receptors (Human CB2 EC50 (uM)) is 0.771 µM; on human CB1 receptors (setting [3]) it was over 10 µM.

Turning to `NC(=O)[C@@H]1CC(F)(F)CN1C(=O)c1cc(OCC2CC2)c(C2CC2)cn1` [Example 114, (2S)-1-[5-cyclopropyl-4-(cyclopropylmethoxy)pyridine-2-carbonyl]-4,4-difluoropyrrolidine-2-carboxamide], the EC50 at human CB2 receptors (read-out: Human CB2 EC50) was 1 µM; at human CB1 receptors (setting [2]), over 10 µM.
